Positions of bridges follow the written chain, without caps; N, C: chain ends. Non-standard residues stand in square brackets, D forms with d. Residues, ends and D or L forms follow the SMILES beside them. *: point of attachment. 5FAM = O=C1OC2(c3ccc(O)cc3Oc3cc(O)ccc32)c2ccc(C(=O)*)cc21; βAla = NCCC(=O)O
Molecular target: outward-facing TmrA^EQB trapped with Mg-ATP (Thermus thermophilus, UniProt Q72J04+Q72J05, E523Q)
Experiment: Conformation-specific binding by fluorescence anisotropy, OF conformer
Details: fluorescence polarization, IF TmrAB vs ATP-trapped OF TmrA^EQB
Description: ABC transport complexes such as TmrAB run through multiple conformational states along the ATP hydrolysis cycle to drive unidirectional substrate transport ([Hofmann et al., 2019]; [Stefan et al., 2020]). Within the substrate translocation cycle, two major conformers, inward-facing (IF) and outward-facing (OF), were identified. To investigate whether CPs favor one of these conformers, we probed the binding of CP^Fs by fluorescence polarization analysis. […] In the latter case, the interaction studies were performed immediately after the IF-to-OF switch by incubation with ATP for 5 min at 45°C. To exclude an OF-to-IF return (τ1/2 of 25 min) ([Stefan et al., 2020]), the fluorescence anisotropy was recorded only within the first minute of incubation.
Figure 5. […] Immediately after, the fluorescence anisotropy was assayed at λex/em = 485/520 nm. The difference in fluorescence polarization was normalized to free and fully bound CP^F. Data were fitted by a one-site binding model. […] Occluded nucleotides were analyzed by thin layer chromatography and autoradiography. […] (D) Stably occluded nucleotides, [α^32P]-ATP and [α^32P]-ADP, were quantified by autoradiography. […] The difference in fluorescence polarization was normalized to unbound (0%) and 100% bound CP^F. Data were fitted by a one-site binding model. Fluorescence anisotropy was recorded at λex/em = 485/520 nm. […]

SMILES	Conformational preference of binding, IF vs OF
CC(C)[C@@H]1NC(=O)[C@H](Cc2ccccc2)NC(=O)[C@@H]2CCCN2C(=O)[C@H](CC(N)=O)NC(=O)[C@H](Cc2c[nH]c3ccccc23)NC(=O)[C@H](C(C)C)NC(=O)[C@H](Cc2ccc(O)cc2)NC(=O)[C@H](Cc2ccccc2)NC(=O)[C@@H](Cc2ccc(O)cc2)NC(=O)CSC[C@@H](C(=O)NCC(=O)N[C@@H](CO)C(=O)NCCC(=O)NCCC(=O)N[C@@H](CCCNC(=N)N)C(=O)N[C@@H](CCCCNC(=O)c2ccc3c(c2)C(=O)OC32c3ccc(O)cc3Oc3cc(O)ccc32)C(N)=O)NC(=O)[C@H](CCCCN)NC(=O)[C@H](Cc2ccccc2)NC1=O [CP14] ({CH2CO}-[dY]FYVWNPFVFKCGS[βAla][βAla]RK(5FAM)-NH2; thioether N-12; C-terminus assumed)	preference for the OF conformer
CC[C@H](C)[C@@H]1NC(=O)[C@H](Cc2c[nH]c3ccccc23)NC(=O)[C@H](CC(N)=O)NC(=O)[C@H](C)NC(=O)[C@H](CO)NC(=O)[C@@H]2CCCN2C(=O)[C@H](CC(=O)O)NC(=O)[C@@H](Cc2ccc(O)cc2)NC(=O)CSC[C@@H](C(=O)NCC(=O)N[C@@H](CO)C(=O)NCCC(=O)NCCC(=O)N[C@@H](CCCNC(=N)N)C(=O)N[C@@H](CCCCNC(=O)c2ccc3c(c2)C(=O)OC32c3ccc(O)cc3Oc3cc(O)ccc32)C(N)=O)NC(=O)[C@H]([C@@H](C)O)NC(=O)[C@H](CC(C)C)NC(=O)[C@H](CC(C)C)NC(=O)[C@H](C(C)C)NC(=O)[C@H](CC(C)C)NC1=O [CP13] ({CH2CO}-[dY]DPSANWILVLLTCGS[βAla][βAla]RK(5FAM)-NH2; thioether N-14; C-terminus assumed)	preference for the OF conformer
